Laboratory results from ChEMBL document CHEMBL5506047, “Impact of Combinatorial Histone Modifications on Acetyllysine Recognition by the ATAD2 and ATAD2B Bromodomains” (J Med Chem, 2024).

Key:
[1] = biological target: T1, ATPase family AAA domain-containing protein 2B (Homo sapiens, UniProt Q9ULI0); test: Binding affinity to human ATAD2B BRD assessed as dissociation constant by isothermal titration calorimetry
T1 sequence (Q9ULI0 whole entry): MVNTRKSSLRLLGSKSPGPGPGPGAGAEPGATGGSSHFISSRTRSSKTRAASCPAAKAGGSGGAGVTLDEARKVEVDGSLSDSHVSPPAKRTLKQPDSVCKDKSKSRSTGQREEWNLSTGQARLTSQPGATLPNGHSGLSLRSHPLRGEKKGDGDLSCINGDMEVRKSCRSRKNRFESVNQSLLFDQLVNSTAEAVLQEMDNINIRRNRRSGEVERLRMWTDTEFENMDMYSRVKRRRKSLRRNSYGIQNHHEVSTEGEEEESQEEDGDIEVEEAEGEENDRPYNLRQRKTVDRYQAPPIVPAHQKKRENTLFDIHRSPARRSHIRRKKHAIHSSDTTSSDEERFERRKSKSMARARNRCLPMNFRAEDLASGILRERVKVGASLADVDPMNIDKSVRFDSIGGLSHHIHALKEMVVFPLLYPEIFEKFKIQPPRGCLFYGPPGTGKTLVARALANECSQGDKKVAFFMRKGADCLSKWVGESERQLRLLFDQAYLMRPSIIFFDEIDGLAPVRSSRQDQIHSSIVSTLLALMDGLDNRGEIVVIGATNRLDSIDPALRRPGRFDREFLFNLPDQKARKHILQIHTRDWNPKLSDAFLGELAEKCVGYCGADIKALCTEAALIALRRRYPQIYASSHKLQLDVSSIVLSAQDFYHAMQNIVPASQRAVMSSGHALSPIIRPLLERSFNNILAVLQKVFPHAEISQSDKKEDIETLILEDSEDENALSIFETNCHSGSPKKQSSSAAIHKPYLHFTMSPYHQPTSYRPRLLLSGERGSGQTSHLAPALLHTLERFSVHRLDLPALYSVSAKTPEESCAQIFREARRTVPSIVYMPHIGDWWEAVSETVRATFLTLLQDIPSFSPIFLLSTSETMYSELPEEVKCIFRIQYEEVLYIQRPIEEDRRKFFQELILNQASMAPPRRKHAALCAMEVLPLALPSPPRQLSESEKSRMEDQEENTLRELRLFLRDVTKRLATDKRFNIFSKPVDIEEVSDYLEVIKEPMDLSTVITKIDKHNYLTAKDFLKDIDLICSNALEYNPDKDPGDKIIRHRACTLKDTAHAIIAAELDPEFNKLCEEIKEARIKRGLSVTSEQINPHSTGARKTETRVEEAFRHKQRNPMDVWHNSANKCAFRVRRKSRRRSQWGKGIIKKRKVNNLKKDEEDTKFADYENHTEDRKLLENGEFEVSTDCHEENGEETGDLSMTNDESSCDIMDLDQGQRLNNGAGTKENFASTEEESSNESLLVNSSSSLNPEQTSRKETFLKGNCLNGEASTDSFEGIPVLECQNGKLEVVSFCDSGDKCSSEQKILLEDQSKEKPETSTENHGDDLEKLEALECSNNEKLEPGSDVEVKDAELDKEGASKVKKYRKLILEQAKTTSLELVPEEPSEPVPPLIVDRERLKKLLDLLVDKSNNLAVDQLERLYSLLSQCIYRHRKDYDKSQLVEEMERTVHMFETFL

[2] = biological target: T2, ATPase family AAA domain-containing protein 2 (Homo sapiens, UniProt Q6PL18); test: Binding affinity to human ATAD2 BRD assessed as dissociation constant by isothermal titration calorimetry
T2 sequence (Q6PL18 whole entry): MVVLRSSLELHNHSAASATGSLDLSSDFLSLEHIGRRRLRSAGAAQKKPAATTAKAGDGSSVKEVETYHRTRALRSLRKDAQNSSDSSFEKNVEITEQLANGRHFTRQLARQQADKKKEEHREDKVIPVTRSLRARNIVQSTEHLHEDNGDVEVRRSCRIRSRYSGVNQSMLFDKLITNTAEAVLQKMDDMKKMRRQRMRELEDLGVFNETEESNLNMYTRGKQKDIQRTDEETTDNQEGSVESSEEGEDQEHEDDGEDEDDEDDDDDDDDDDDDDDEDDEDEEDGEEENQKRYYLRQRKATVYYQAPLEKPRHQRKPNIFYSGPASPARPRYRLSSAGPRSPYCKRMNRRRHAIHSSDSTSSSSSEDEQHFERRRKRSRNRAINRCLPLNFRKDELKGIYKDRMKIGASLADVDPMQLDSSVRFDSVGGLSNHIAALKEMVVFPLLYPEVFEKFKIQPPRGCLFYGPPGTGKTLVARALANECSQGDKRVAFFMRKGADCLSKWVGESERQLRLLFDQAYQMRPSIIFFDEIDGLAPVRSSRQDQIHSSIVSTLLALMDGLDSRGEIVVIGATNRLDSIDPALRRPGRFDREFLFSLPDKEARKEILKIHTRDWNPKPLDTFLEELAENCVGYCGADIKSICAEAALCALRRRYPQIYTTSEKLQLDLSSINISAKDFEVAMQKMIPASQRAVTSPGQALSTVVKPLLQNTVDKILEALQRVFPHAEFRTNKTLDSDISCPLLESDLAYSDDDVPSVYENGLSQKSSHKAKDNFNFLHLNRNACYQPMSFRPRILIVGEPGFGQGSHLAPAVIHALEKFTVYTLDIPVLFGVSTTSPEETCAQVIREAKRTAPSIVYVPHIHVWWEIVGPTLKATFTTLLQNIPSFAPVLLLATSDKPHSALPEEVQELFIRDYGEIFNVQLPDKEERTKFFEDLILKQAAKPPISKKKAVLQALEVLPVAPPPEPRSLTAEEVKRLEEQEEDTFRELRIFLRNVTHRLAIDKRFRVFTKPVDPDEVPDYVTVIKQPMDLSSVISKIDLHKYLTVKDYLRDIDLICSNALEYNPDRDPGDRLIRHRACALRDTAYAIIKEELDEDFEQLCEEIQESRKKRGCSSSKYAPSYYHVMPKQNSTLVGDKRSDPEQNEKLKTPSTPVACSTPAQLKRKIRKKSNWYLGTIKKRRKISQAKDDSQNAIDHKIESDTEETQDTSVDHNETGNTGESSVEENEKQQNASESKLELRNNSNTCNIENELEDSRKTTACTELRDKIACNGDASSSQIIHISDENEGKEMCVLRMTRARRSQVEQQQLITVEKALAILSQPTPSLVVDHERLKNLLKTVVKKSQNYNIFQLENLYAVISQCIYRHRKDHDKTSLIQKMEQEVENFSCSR

| Compound | Kd [1] | Kd [2] |
| --- | --- | --- |
| CC(=O)NCCCC[C@H](NC(=O)[C@H](CO)NC(=O)[C@H](CCCNC(=N)N)NC(=O)CNC(=O)[C@@H](N)CO)C(=O)NCC(=O)NCC(=O)N[C@@H](CCCCN)C(=O)NCC(=O)N[C@@H](CC(C)C)C(=O)NCC(=O)N[C@@H](CCCCN)C(=O)NCC(=O)NCC(=O)N[C@@H](C)C(=O)O | Not Active | Not Active |
| CC(=O)NCCCC[C@H](NC(=O)[C@H](CC(=O)O)NC(=O)[C@H](CCCNC(=N)N)NC(=O)CNC(=O)[C@@H](N)CO)C(=O)NCC(=O)NCC(=O)N[C@@H](CCCCN)C(=O)NCC(=O)N[C@@H](CC(C)C)C(=O)NCC(=O)N[C@@H](CCCCN)C(=O)NCC(=O)NCC(=O)N[C@@H](C)C(=O)O | Not Active | Not Active |
| H-AGGKAGKDSGKAKTK-OH | Not Active | Not Active |

The next lines start with the values.

| Kd [1] | Kd [2] | Compound |
| --- | --- | --- |
| Not Active | Not Active | H-AGGK(Ac)AGK(Ac)DSGKAKTK-OH |
| – | Not Active | H-AGGK(Ac)AGKDSGKAKTK-OH |
| Not Active | Not Active | H-SGRGKTGGKARAKAKSR-OH |
